Assay results from ChEMBL document CHEMBL1151449, “In vitro activity of DC-159a, a new broad-spectrum fluoroquinolone, compared with that of other agents against drug-susceptible and -resistant pneumococci” (2008).
In brackets after ≈: the same amount, converted by molar mass.

How the values were obtained:
Format in all cases: functional
[1] = tested on: Streptococcus pneumoniae; assay: Antibacterial activity against penicillin-susceptible, quinolone-resistant Streptococcus pneumoniae 1072 expressing ermB and harboring S81F mutation in quinolone-resistant determining regions of GyrA gene, S79Y mutation in QRDR of ParC gene and I460V mutation in QRDR of ParE gene by broth microdilution method
[2] = tested on: Streptococcus pneumoniae; assay: Antibacterial activity against penicillin- and quinolone-susceptible Streptococcus pneumoniae HMC 5055 expressing mefA by broth microdilution method
[3] = tested on: Streptococcus pneumoniae; assay: Antibacterial activity against azithromycin-resistant Streptococcus pneumoniae […] by agar dilution method
[4] = tested on: Streptococcus pneumoniae; assay: Antibacterial activity against quinolone-resistant Streptococcus pneumoniae […] by agar dilution method
[5] = tested on: Streptococcus pneumoniae; assay: Antibacterial activity against penicillin-resistant and quinolone-susceptible Streptococcus pneumoniae HMC 228 expressing ermB by broth microdilution method
[6] = tested on: Streptococcus pneumoniae; assay: Antibacterial activity against penicillin-resistant and quinolone-susceptible Streptococcus pneumoniae HMC 3583 expressing mefA by broth microdilution method
[7] = tested on: Streptococcus pneumoniae; assay: Antibacterial activity against penicillin-, macrolide- and quinolone-susceptible Streptococcus pneumoniae HMC 63 by broth microdilution method
[8] = tested on: Streptococcus pneumoniae; assay: Antibacterial activity against penicillin-susceptible Streptococcus pneumoniae ATCC 49619 by agar dilution method
[9] = tested on: Streptococcus pneumoniae; assay: Antibacterial activity against penicillin-intermediate Streptococcus pneumoniae […] by agar dilution method
[10] = tested on: Streptococcus pneumoniae; assay: (§1) Antibacterial activity against macrolide-, quinolone-susceptible and penicillin-intermediate Streptococcus pneumoniae HMC 99 harboring S81Y and S79Y mutation in quinolone-resistant determining regions of GyrA and ParC genes respectively after 41 passages with moxifloxacin measured after 10 daily antibiotic-free subculturing by multi-step resistance selection technique
[11] = tested on: Streptococcus pneumoniae; assay: Antibacterial activity against macrolide-, quinolone-susceptible and penicillin-intermediate Streptococcus pneumoniae HMC 99 after 50 passages by broth microdilution method
[12] = tested on: Streptococcus pneumoniae; assay: Antibacterial activity against quinolone-susceptible Streptococcus pneumoniae ATCC 49619 by agar dilution method
[13] = tested on: Streptococcus pneumoniae; assay: (§2) Antibacterial activity against penicillin-, macrolide- and quinolone-susceptible Streptococcus pneumoniae HMC 63 harboring S81F mutation in quinolone-resistant determining regions of GyrA gene, D83Y mutation in QRDR of ParC gene and I460V mutation in QRDR of ParE gene after 34 passages with gemifloxacin measured after 10 daily antibiotic-free subculturing by multi-step resistance selection technique
[14] = tested on: Streptococcus pneumoniae; assay: (§3) Antibacterial activity against penicillin-, macrolide-susceptible and quinolone-resistant Streptococcus pneumoniae HMC 1074 harboring S81F mutation in quinolone-resistant determining regions of GyrA gene, S79F mutation in QRDR of ParC gene and I460V mutation in QRDR of ParE gene after 50 passages by broth microdilution method
[15] = tested on: Streptococcus pneumoniae; assay: as §2, with “macrolide-susceptible” for “macrolide-”, “quinolone-resistant” for “quinolone-susceptible”, “1074” for “63”, “S81F, E85K” for “S81F”, “S79F” for “D83Y”, “27” for “34”
[16] = tested on: Streptococcus pneumoniae; assay: Antibacterial activity against penicillin- and quinolone-susceptible Streptococcus pneumoniae HMC 5055 expressing mefA after 50 passages by broth microdilution method
[17] = tested on: Streptococcus pneumoniae; assay: Antibacterial activity against quinolone-susceptible and penicillin-intermediate Streptococcus pneumoniae HMC 5048 expressing mefA after 50 passages by broth microdilution method
[18] = tested on: Streptococcus pneumoniae; assay: as §2, with “penicillin-resistant” for “penicillin-, macrolide-”, “228 expressing ermB and” for “63”, “S79Y” for “D83Y”, “38” for “34”, “gatifloxacin” for “gemifloxacin”
[19] = tested on: Streptococcus pneumoniae; assay: Antibacterial activity against penicillin-, quinolone-resistant Streptococcus pneumoniae HMC 1541 harboring mutation in L4 protein by broth microdilution method
[20] = tested on: Streptococcus pneumoniae; assay: as §2, with “penicillin-resistant” for “penicillin-, macrolide-”, “3583 expressing mefA and” for “63”, “D83N” for “D83Y”, “49” for “34”, “DC-159a” for “gemifloxacin”
[21] = tested on: Streptococcus pneumoniae; assay: Antibacterial activity against macrolide-, quinolone-susceptible and penicillin-intermediate Streptococcus pneumoniae HMC 99 by broth microdilution method
[22] = tested on: Streptococcus pneumoniae; assay: as §2, with “penicillin-resistant” for “penicillin-, macrolide-”, “3583 expressing mefA and” for “63”, “D83N” for “D83Y”, “44” for “34”, “levofloxacin” for “gemifloxacin”
[23] = tested on: Streptococcus pneumoniae; assay: Antibacterial activity against macrolide-, quinolone-susceptible and penicillin-intermediate Streptococcus pneumoniae HMC 100 by broth microdilution method
[24] = tested on: Streptococcus pneumoniae; assay: Antibacterial activity against penicillin-resistant and quinolone-susceptible Streptococcus pneumoniae HMC 3583 expressing mefA after 50 passages by broth microdilution method
[25] = tested on: Streptococcus pneumoniae; assay: Antibacterial activity against quinolone-susceptible and penicillin-intermediate Streptococcus pneumoniae HMC 441 expressing ermB by broth microdilution method
[26] = tested on: Streptococcus pneumoniae; assay: Antibacterial activity against macrolide-, quinolone-susceptible and penicillin-intermediate Streptococcus pneumoniae HMC 100 after 50 passages by broth microdilution method
[27] = tested on: Streptococcus pneumoniae; assay: (§4) Antibacterial activity against penicillin-resistant and quinolone-susceptible Streptococcus pneumoniae HMC 3583 expressing mefA and harboring I460V mutation in QRDR of ParE gene after 41 passages with gemifloxacin measured after 10 daily antibiotic-free subculturing by multi-step resistance selection technique
[28] = tested on: Streptococcus pneumoniae; assay: as §3, with “gene” for “gene after 50 passages”
[29] = tested on: Streptococcus pneumoniae; assay: as §2, with “penicillin-resistant” for “penicillin-, macrolide-”, “228 expressing ermB and” for “63”, “S79Y” for “D83Y”, “36” for “34”, “moxifloxacin” for “gemifloxacin”
[30] = tested on: Streptococcus pneumoniae; assay: Antibacterial activity against quinolone-susceptible and penicillin-intermediate Streptococcus pneumoniae HMC 5048 expressing mefA by broth microdilution method
[31] = tested on: Streptococcus pneumoniae; assay: as §4, with “S81F mutation in quinolone-resistant determining regions of GyrA gene and I460V, D435N” for “I460V”, “46” for “41”, “gatifloxacin” for “gemifloxacin”
[32] = tested on: Streptococcus pneumoniae; assay: as §2, with “penicillin-resistant” for “penicillin-, macrolide-”, “228 expressing ermB and” for “63”, “D83N” for “D83Y”, “28” for “34”, “DC-159a” for “gemifloxacin”
[33] = tested on: Streptococcus pneumoniae; assay: Antibacterial activity against penicillin-, quinolone-resistant and macrolide-susceptible Streptococcus pneumoniae HMC 1058 harboring S79F, K137N mutation in quinolone-resistant determining regions of ParC gene and 460V mutation in QRDR of ParE gene by broth microdilution method
[34] = tested on: Streptococcus pneumoniae; assay: as §1, with “100” for “99”, “harboring” for “harboring S81Y and”, “of” for “of GyrA and”, “gene” for “genes respectively”, “34” for “41”, “gemifloxacin” for “moxifloxacin”
[35] = tested on: Streptococcus pneumoniae; assay: Antibacterial activity against penicillin-resistant Streptococcus pneumoniae […] by agar dilution method
[36] = tested on: Streptococcus pneumoniae; assay: Antibacterial activity against azithromycin-susceptible Streptococcus pneumoniae ATCC 49619 by agar dilution method
[37] = tested on: Streptococcus pneumoniae; assay: as §1, with “100” for “99”, “S81Y” for “S81Y and S79Y”, “gene” for “and ParC genes respectively”, “22” for “41”
[38] = tested on: Streptococcus pneumoniae; assay: as §1, with “100” for “99”, “42” for “41”, “levofloxacin” for “moxifloxacin”
[39] = tested on: Streptococcus pneumoniae; assay: Antibacterial activity against penicillin-, macrolide- and quinolone-susceptible Streptococcus pneumoniae HMC 63 after 50 passages by broth microdilution method

With `CC[C@H]1OC(=O)[C@H](C)[C@@H](O[C@H]2C[C@@](C)(OC)[C@@H](O)[C@H](C)O2)[C@H](C)[C@@H](O[C@@H]2O[C@H](C)C[C@H](N(C)C)[C@H]2O)[C@](C)(O)C[C@@H](C)CN(C)[C@H](C)[C@@H](O)[C@]1(C)O` [AZITHROMYCIN] the MIC [1] was > 64 µg/mL, the MIC [2] was 2 µg/mL (≈ 2.67 µM) and the MIC50 [3] was > 64 µg/mL. The MIC50 [4] was 0.06 µg/mL (≈ 0.0801 µM), the MIC [5] was > 64 µg/mL and the MIC [6] was 2 µg/mL (≈ 2.67 µM). The MIC [7] was 0.016 µg/mL (≈ 0.0214 µM), the MIC50 [8] was 0.12 µg/mL (≈ 0.16 µM) and the MIC90 [8] was > 64 µg/mL. The MIC50 [9] was 0.12 µg/mL (≈ 0.16 µM), the MIC90 [9] was > 64 µg/mL and the MIC [10] was 0.016 µg/mL (≈ 0.0214 µM). The MIC [11] was 0.06 µg/mL (≈ 0.0801 µM), the MIC50 [12] was 1 µg/mL (≈ 1.34 µM) and the MIC90 [12] was > 64 µg/mL. The MIC [13] was 0.03 µg/mL (≈ 0.0401 µM), the MIC [14] was 0.03 µg/mL (≈ 0.0401 µM) and the MIC [15] was 0.016 µg/mL (≈ 0.0214 µM). For the same compound, the MIC [16] was 8 µg/mL (≈ 10.7 µM), the MIC [17] was 8 µg/mL (≈ 10.7 µM) and the MIC [18] was 2 µg/mL (≈ 2.67 µM). The MIC [19] was > 64 µg/mL, the MIC [20] was 0.25 µg/mL (≈ 0.334 µM) and the MIC [21] was 0.016 µg/mL (≈ 0.0214 µM). The MIC [22] was 2 µg/mL (≈ 2.67 µM), the MIC [23] was 0.03 µg/mL (≈ 0.0401 µM) and the MIC [24] was 4 µg/mL (≈ 5.34 µM). The MIC [25] was > 64 µg/mL, the MIC [26] was 0.03 µg/mL (≈ 0.0401 µM) and the MIC [27] was 0.25 µg/mL (≈ 0.334 µM). For the same compound, the MIC [28] was 0.03 µg/mL (≈ 0.0401 µM), the MIC [29] was > 64 µg/mL and the MIC [30] was 4 µg/mL (≈ 5.34 µM). For the same compound, the MIC [31] was 0.25 µg/mL (≈ 0.334 µM), the MIC [32] was > 64 µg/mL and the MIC [33] was 0.06 µg/mL (≈ 0.0801 µM). It also gave an MIC [34] of 0.06 µg/mL (≈ 0.0801 µM), an MIC50 [35] of 2 µg/mL (≈ 2.67 µM) and an MIC50 [36] of 0.12 µg/mL (≈ 0.16 µM). It also gave an MIC90 [36] of 0.12 µg/mL (≈ 0.16 µM), an MIC [37] of 0.03 µg/mL (≈ 0.0401 µM) and an MIC [38] of 0.03 µg/mL (≈ 0.0401 µM). The MIC [39] was 0.06 µg/mL (≈ 0.0801 µM).
